In this data set the test system is rodent lifetime carcinogenesis bioassay, tumor incidence TD50. Put plainly: chronic cancer bioassays in animals – CPDB, compiled studies (AID 1745844).

Activity calls are given as the source filed them. No rule for the calls is given here.

With `NNC=O`, the TD50 is 6860 mg/kg/day (mouse, strain Swiss albino, females, in drinking water, site: liver, lesion: several types, types named in the paper, dosed 83 weeks, study length 83 weeks); 36 mg/kg/day (mouse, strain Swiss albino, females, in drinking water, site: lung, lesion: several types, types named in the paper, dosed 83 weeks, study length 83 weeks); 1150 mg/kg/day (mouse, strain Swiss albino, males, in drinking water, site: liver, lesion: several types, types named in the paper, dosed 83 weeks, study length 83 weeks). Also, the carcinogen call (mouse, strain Swiss albino, males, in drinking water, site: lung, lesion: several types, types named in the paper, dosed 83 weeks, study length 83 weeks) was “positive”.

Turning to `O=NN(CCO)C(=O)NCCCl`, the TD50 runs as follows: (rat, strain Fischer 344, females, by gavage, site: all sites, lesion: mononuclear-cell leukemia, dosed 40 weeks, study length 115 weeks) 0.76 mg/kg/day; (rat, strain Fischer 344, females, by gavage, site: kidney tubule, lesion: several types, types named in the paper, dosed 40 weeks, study length 115 weeks) 4.38 mg/kg/day; (rat, strain Fischer 344, females, by gavage, site: liver, lesion: cholangiocarcinoma, dosed 40 weeks, study length 115 weeks) 4.38 mg/kg/day; (rat, strain Fischer 344, females, by gavage, site: liver, lesion: hepatocellular carcinoma, dosed 40 weeks, study length 115 weeks) 0.653 mg/kg/day; (rat, strain Fischer 344, females, by gavage, site: liver, lesion: neoplastic nodule, dosed 40 weeks, study length 115 weeks) 0.564 mg/kg/day; (rat, strain Fischer 344, females, by gavage, site: liver, lesion: several types, types named in the paper, dosed 40 weeks, study length 115 weeks) 0.488 mg/kg/day. The TD50 reads like this: (rat, strain Fischer 344, females, in drinking water, site: liver, lesion: one or several types, types not named, dosed 30 weeks, study length 104 weeks) 1.19 mg/kg/day; (rat, strain Fischer 344, females, in drinking water, site: uterus, lesion: one or several types, types not named, dosed 30 weeks, study length 104 weeks) 0.669 mg/kg/day; (rat, strain Fischer 344, males, by gavage, site: kidney tubule, lesion: several types, types named in the paper, dosed 35 weeks, study length 120 weeks) 0.663 mg/kg/day; (rat, strain Fischer 344, males, by gavage, site: liver, lesion: cholangiocarcinoma, dosed 35 weeks, study length 120 weeks) 0.926 mg/kg/day; (rat, strain Fischer 344, males, by gavage, site: liver, lesion: hepatocellular carcinoma, dosed 35 weeks, study length 120 weeks) 0.233 mg/kg/day; (rat, strain Fischer 344, males, by gavage, site: liver, lesion: neoplastic nodule, dosed 35 weeks, study length 120 weeks) 1.19 mg/kg/day. For the same compound, the TD50 reads like this: (rat, strain Fischer 344, males, by gavage, site: liver, lesion: several types, types named in the paper, dosed 35 weeks, study length 120 weeks) 0.15 mg/kg/day; (rat, strain Fischer 344, males, in drinking water, site: liver, lesion: one or several types, types not named, dosed 30 weeks, study length 104 weeks) 0.59 mg/kg/day.

On to `CN(N=O)c1ccc(F)cc1`, for which the TD50 is 0.255 mg/kg/day (rat, strain Fischer 344, males, in drinking water, site: esophagus, lesion: several types, types named in the paper, dosed 50 weeks, study length 114 weeks) and 10.3 mg/kg/day (rat, strain Fischer 344, males, in drinking water, site: liver, lesion: hyperplastic nodule, dosed 50 weeks, study length 114 weeks).

With `CC(O)CN(CC(O)CO)N=O` (stereo not given), the TD50 (hamster, strain Syrian Golden, females, by gavage, site: forestomach, lesion: several types, types named in the paper, dosed 41 weeks, study length 75 weeks) was 1.59 mg/kg/day; the TD50 (hamster, strain Syrian Golden, females, by gavage, site: forestomach, lesion: squamous-cell papilloma, dosed 41 weeks, study length 75 weeks) is 1.59 mg/kg/day; the TD50 (hamster, strain Syrian Golden, females, by gavage, site: liver, lesion: cholangioadenoma, dosed 41 weeks, study length 75 weeks) stood at 32.6 mg/kg/day; the TD50 (rat, strain Fischer 344, females, in drinking water, site: esophagus, lesion: carcinoma, dosed 37 weeks, study length 85 weeks) was 0.117 mg/kg/day; the TD50 (rat, strain Fischer 344, females, in drinking water, site: esophagus, lesion: several types, types named in the paper, dosed 37 weeks, study length 85 weeks) was 0.0535 mg/kg/day; the TD50 (rat, strain Fischer 344, females, in drinking water, site: forestomach, lesion: several types, types named in the paper, dosed 37 weeks, study length 85 weeks) is 0.178 mg/kg/day. For the same compound, the TD50 runs as follows: (rat, strain Fischer 344, females, in drinking water, site: liver, lesion: hepatocellular carcinoma, dosed 37 weeks, study length 85 weeks) 2.4 mg/kg/day; (rat, strain Fischer 344, females, in drinking water, site: tongue, lesion: several types, types named in the paper, dosed 37 weeks, study length 85 weeks) 0.0888 mg/kg/day; (rat, strain Fischer 344, females, in drinking water, site: tongue, lesion: squamous-cell carcinoma, dosed 37 weeks, study length 85 weeks) 0.241 mg/kg/day.

Turning to `COc1cc(OC)c2c3c(c(=O)oc2c1)CCC3=O`, where the note is “rat, strain Fischer, males, by gavage, site: liver, lesion: one or several types, types not named, dosed 52 weeks, study length 74 weeks”, the carcinogen call was “negative (inactive)”.

With `CC(C)COC(=O)c1ccc(O)cc1`, the TD50 was 12300 mg/kg/day (inactive) (mouse, strain ICR/Jcl, females, in feed, site: any site (literature study), lesion: several types, types named in the paper, dosed 102 weeks, study length 106 weeks); 37200 mg/kg/day (inactive) (mouse, strain ICR/Jcl, females, in feed, site: lung, lesion: one or several types, types not named, dosed 102 weeks, study length 106 weeks); 6570 mg/kg/day (inactive) (mouse, strain ICR/Jcl, males, in feed, site: any site (literature study), lesion: several types, types named in the paper, dosed 102 weeks, study length 104 weeks); 26300 mg/kg/day (inactive) (mouse, strain ICR/Jcl, males, in feed, site: liver, lesion: one or several types, types not named, dosed 102 weeks, study length 104 weeks). In addition, the carcinogen call (mouse, strain ICR/Jcl, females, in feed, site: liver, lesion: one or several types, types not named, dosed 102 weeks, study length 106 weeks) was “negative (inactive)” and the carcinogen call (mouse, strain ICR/Jcl, males, in feed, site: lung, lesion: one or several types, types not named, dosed 102 weeks, study length 104 weeks) was “negative (inactive)”.

In the case of `CC[C@H]1OC(=O)C[C@@H](O)[C@H](C)[C@@H](O[C@@H]2O[C@H](C)[C@@H](O[C@H]3C[C@@](C)(O)[C@@H](O)[C@H](C)O3)[C@H](N(C)C)[C@H]2O)[C@@H](CC=O)C[C@@H](C)C(=O)/C=C/C(C)=C/C1CO[C@@H]1O[C@H](C)[C@@H](O)[C@@H](OC)[C@H]1OC` (stereo not given in full), the carcinogen call was “negative (inactive)” (mouse, strain C57BL/6, females, in feed, site: liver, lesion: one or several types, types not named, dosed 52 weeks, study length 52 weeks); “negative (inactive)” (mouse, strain C57BL/6, females, in feed, site: lung, lesion: one or several types, types not named, dosed 52 weeks, study length 52 weeks); “negative (inactive)” (mouse, strain C57BL/6, males, in feed, site: liver, lesion: one or several types, types not named, dosed 52 weeks, study length 52 weeks); “negative (inactive)” (mouse, strain C57BL/6, males, in feed, site: lung, lesion: one or several types, types not named, dosed 52 weeks, study length 52 weeks).

Regarding `COc1cc2c(cc1N)oc1ccccc12`, the TD50 runs as follows: (rat, strain Fischer, females, in feed, site: any site (literature study), lesion: malignant tumor, dosed 75 weeks, study length 75 weeks) 33.1 mg/kg/day; (rat, strain Fischer, females, in feed, site: external auditory canal, lesion: squamous-cell carcinoma, dosed 75 weeks, study length 75 weeks) 43.9 mg/kg/day; (rat, strain Fischer, females, in feed, site: mammary gland, lesion: adenocarcinoma, dosed 75 weeks, study length 75 weeks) 205 mg/kg/day; (rat, strain Fischer, females, in feed, site: urinary bladder, lesion: several types, types named in the paper, dosed 75 weeks, study length 75 weeks) 25.7 mg/kg/day; (rat, strain Fischer, females, in feed, site: urinary bladder, lesion: transitional-cell carcinoma, dosed 75 weeks, study length 75 weeks) 43.9 mg/kg/day; (rat, strain Fischer, males, in feed, site: any site (literature study), lesion: malignant tumor, dosed 75 weeks, study length 75 weeks) 78.2 mg/kg/day. Also, the TD50 by setting is: (rat, strain Fischer, males, in feed, site: external auditory canal, lesion: squamous-cell carcinoma, dosed 75 weeks, study length 75 weeks) 78.2 mg/kg/day; (rat, strain Fischer, males, in feed, site: urinary bladder, lesion: several types, types named in the paper, dosed 75 weeks, study length 75 weeks) 26.4 mg/kg/day; (rat, strain Fischer, males, in feed, site: urinary bladder, lesion: transitional-cell carcinoma, dosed 75 weeks, study length 75 weeks) 78.2 mg/kg/day; (rat, strain Sprague-Dawley, females, in feed, site: any site (literature study), lesion: malignant tumor, dosed 75 weeks, study length 75 weeks) 25.7 mg/kg/day; (rat, strain Sprague-Dawley, females, in feed, site: external auditory canal, lesion: squamous-cell carcinoma, dosed 75 weeks, study length 75 weeks) 61.9 mg/kg/day; (rat, strain Sprague-Dawley, females, in feed, site: mammary gland, lesion: adenocarcinoma, dosed 75 weeks, study length 75 weeks) 61.9 mg/kg/day. Besides, the TD50 was 43.9 mg/kg/day (rat, strain Sprague-Dawley, females, in feed, site: urinary bladder, lesion: several types, types named in the paper, dosed 75 weeks, study length 75 weeks); 205 mg/kg/day (rat, strain Sprague-Dawley, females, in feed, site: urinary bladder, lesion: transitional-cell carcinoma, dosed 75 weeks, study length 75 weeks); 78.2 mg/kg/day (rat, strain Sprague-Dawley, males, in feed, site: any site (literature study), lesion: malignant tumor, dosed 75 weeks, study length 75 weeks); 164 mg/kg/day (rat, strain Sprague-Dawley, males, in feed, site: kidney, lesion: squamous-cell carcinoma, dosed 75 weeks, study length 75 weeks); 164 mg/kg/day (rat, strain Sprague-Dawley, males, in feed, site: urinary bladder, lesion: transitional-cell papilloma, dosed 75 weeks, study length 75 weeks); 43.9 mg/kg/day (rat, strain Wistar, females, in feed, site: any site (literature study), lesion: malignant tumor, dosed 75 weeks, study length 75 weeks). Moreover, the TD50 (rat, strain Wistar, females, in feed, site: liver, lesion: cystadenoma, dosed 75 weeks, study length 75 weeks) is 205 mg/kg/day; the TD50 (rat, strain Wistar, females, in feed, site: mammary gland, lesion: adenocarcinoma, dosed 75 weeks, study length 75 weeks) was 97.7 mg/kg/day; the TD50 (rat, strain Wistar, females, in feed, site: urinary bladder, lesion: several types, types named in the paper, dosed 75 weeks, study length 75 weeks) is 43.9 mg/kg/day; the TD50 (rat, strain Wistar, females, in feed, site: urinary bladder, lesion: transitional-cell carcinoma, dosed 75 weeks, study length 75 weeks) is 97.7 mg/kg/day; the TD50 (rat, strain Wistar, males, in feed, site: any site (literature study), lesion: benign tumor, dosed 84 weeks, study length 84 weeks) came out at 53.3 mg/kg/day; the TD50 (rat, strain Wistar, males, in feed, site: any site (literature study), lesion: malignant tumor, dosed 75 weeks, study length 75 weeks) was determined as 26.4 mg/kg/day. Besides, the TD50 reads like this: (rat, strain Wistar, males, in feed, site: external auditory canal, lesion: squamous-cell carcinoma, dosed 75 weeks, study length 75 weeks) 78.2 mg/kg/day; (rat, strain Wistar, males, in feed, site: kidney, lesion: squamous-cell carcinoma, dosed 75 weeks, study length 75 weeks) 164 mg/kg/day; (rat, strain Wistar, males, in feed, site: urinary bladder, lesion: several types, types named in the paper, dosed 75 weeks, study length 75 weeks) 35.2 mg/kg/day; (rat, strain Wistar, males, in feed, site: urinary bladder, lesion: transitional-cell carcinoma, dosed 75 weeks, study length 75 weeks) 78.2 mg/kg/day. Further, the carcinogen call (rat, strain Wistar, males, in feed, site: any site (literature study), lesion: malignant tumor, dosed 84 weeks, study length 84 weeks) was “positive” and the carcinogen call (rat, strain Wistar, males, in feed, site: urinary bladder, lesion: several types, types named in the paper, dosed 84 weeks, study length 84 weeks) was “positive”.

As a reminder, the TD50 is the 50% point of the dose-response relation for the toxic effect studied.

The values above are taken from PubChem BioAssay AID1745844 (Carcinogenic Potency Database (CPDB), 2022).
